Assay results as given in patent US20260183320A1, “METHOD FOR TREATING CANCER BY COMBINING ALKYLATING AGENT PRODRUG AND CELL CYCLE INHIBITOR” (ASCENTAWITS PHARMACEUTICALS, LTD., priority 2022, published 2026).

Experiments:
H460 cell line = H460 cell line proliferation inhibition assay under normoxia and hypoxia (CTG); type: cell-based; settings: for IC50: Homo sapiens, NCI-H460, H460
Description: (§1) 24-well plates with glass inserts were used in assays under hypoxia, and ordinary plastic 24-well plates were used in assays under normoxia. • 2) The cells were incubated overnight at 37° C. in an incubator with 5% CO2. • 3) Treatment with Compounds
(§2) A hypoxia workstation was tuned to create a hypoxic environment, and an oxygen indicator was used to confirm the hypoxia in the workstation.
(§3) After cell plating for 24 hours, the 24-well plates with glass inserts were transferred into the hypoxia workstation.
(§4) The 24-well plates were placed on a shaker, uncovered and shaken to allow air exchange for 5 min.
(§5) For each well for combination therapy, 5 or 10 μL of medium was removed and 5 μL of adavosertib (to a final concentration of 1 or 10 μM) or ceralasertib (to a final concentration of 200 or 2000 μM), followed by incubation for 2 h.
(§6) To each well, 5 or 10 μL of the compound was added at a 100× concentration. Three replicate wells were set up for each group.
(§7) Gentle shaking was carried out until homogeneous mixing of the compound, and the 24-well plates were incubated for 3 hours in the hypoxia workstation with their lids being half opened.
(§8) 24 hours after plating of the cells, for each well for combination therapy, 5 or 10 μL of medium was removed and 5 μL of adavosertib (to a final concentration of 1 or 10 μM) or ceralasertib (to a final concentration of 200 or 2000 μM), followed by incubation for 2 h.
In the H460 cell proliferation inhibition assays, adavosertib was added to final concentrations of 3 μM and 30 μM, and ceralasertib was added to final concentrations of 2 μM, 20 µM and 1000 μM.

HT29 cell line = HT29 cell line proliferation inhibition assay under normoxia and hypoxia (CTG); type: cell-based; settings: for additive cytotoxic effect in combination therapy with adavosertib / additive cytotoxic effect in combination therapy with ceralasertib: HT29 (p53-deficient); for Ratio single/combo under Hypoxia / Ratio single/combo under Normoxia / Normoxia/Hypoxia Ratio: HT29; for IC50: Homo sapiens, HT-29, HT29
Description: as §1, §2, §3, §4, §5, §6, §7, §8

[1] = H460 (wild-type p53), normoxia or hypoxia

## Cn1c(COP(=O)(NCCBr)NCCBr)cnc1[N+](=O)[O-] [TH-302]
H460 cell line; [1]
  additive cytotoxic effect in combination therapy with adavosertib: did not exhibit any significant additive cytotoxic effects
  additive cytotoxic effect in combination therapy with ceralasertib: did not exhibit any significant additive cytotoxic effects
H460 cell line; H460, 2 μM ceralasertib
  Ratio combo/single under Normoxia: 1.07
  Ratio single/combo under Hypoxia: 1.71
H460 cell line; H460, 3 μM adavosertib
  Ratio single/combo under Hypoxia: 1.56
  Ratio single/combo under Normoxia: 1.12
H460 cell line; H460, 20 μM ceralasertib
  Ratio single/combo under Hypoxia: 1.49
  Ratio single/combo under Normoxia: 1.05
H460 cell line; H460, 30 μM adavosertib
  Ratio single/combo under Hypoxia: 2.14
H460 cell line; H460, 1000 μM ceralasertib
  Ratio single/combo under Hypoxia: >6.17
  Ratio single/combo under Normoxia: 1.36
H460 cell line; H460, monotherapy, Table 17
  Normoxia/Hypoxia Ratio: 824.83
H460 cell line; H460, monotherapy, Table 19
  Normoxia/Hypoxia Ratio: 1737.84
H460 cell line; H460, with 2 μM ceralasertib
  Normoxia/Hypoxia Ratio: 3190.74
H460 cell line; H460, with 3 μM adavosertib
  Normoxia/Hypoxia Ratio: 1448.06
H460 cell line; H460, with 20 μM ceralasertib
  Normoxia/Hypoxia Ratio: 2464.52
H460 cell line; H460, with 30 μM adavosertib
  Normoxia/Hypoxia Ratio: 1518.50
H460 cell line; H460, with 1000 μM ceralasertib
  Normoxia/Hypoxia Ratio: >7853.33
H460 cell line; monotherapy, hypoxia, adavosertib series (Table 17)
  IC50: 0.0255 µM
H460 cell line; monotherapy, hypoxia, ceralasertib series (Table 19)
  IC50: 0.0185 µM
H460 cell line; monotherapy, normoxia, adavosertib series (Table 17)
  IC50: 21 µM
H460 cell line; monotherapy, normoxia, ceralasertib series (Table 19)
  IC50: 32.1 µM
H460 cell line; with 2 μM ceralasertib, hypoxia
  IC50: 0.0108 µM
H460 cell line; with 2 μM ceralasertib, normoxia
  IC50: 34.5 µM
H460 cell line; with 3 μM adavosertib, hypoxia
  IC50: 0.0163 µM
H460 cell line; with 3 μM adavosertib, normoxia
  IC50: 23.6 µM
H460 cell line; with 20 μM ceralasertib, hypoxia
  IC50: 0.0124 µM
H460 cell line; with 20 μM ceralasertib, normoxia
  IC50: 30.6 µM
H460 cell line; with 30 μM adavosertib, hypoxia
  IC50: 0.0119 µM
H460 cell line; with 30 μM adavosertib, normoxia
  IC50: 18.1 µM
H460 cell line; with 1000 μM ceralasertib, hypoxia
  IC50: < 0.003 µM
H460 cell line; with 1000 μM ceralasertib, normoxia
  IC50: 23.6 µM
HT29 cell line; adavosertib at a high concentration, hypoxia
  additive cytotoxic effect in combination therapy with adavosertib: significant additive cytotoxic effect
HT29 cell line; ceralasertib at a high concentration, hypoxia
  additive cytotoxic effect in combination therapy with ceralasertib: significant additive cytotoxic effect
HT29 cell line; normoxia
  additive cytotoxic effect in combination therapy with adavosertib: did not exhibit any significant additive cytotoxic effects
  additive cytotoxic effect in combination therapy with ceralasertib: did not exhibit any significant additive cytotoxic effects
HT29 cell line; 1 μM adavosertib
  Ratio single/combo under Hypoxia: 2.49
  Ratio single/combo under Normoxia: 2.41
HT29 cell line; 10 μM adavosertib
  Ratio single/combo under Hypoxia: 8.68
  Ratio single/combo under Normoxia: 6.57
HT29 cell line; 200 μM ceralasertib
  Ratio single/combo under Hypoxia: 7.11
  Ratio single/combo under Normoxia: 1.24
HT29 cell line; 2000 μM ceralasertib
  Ratio single/combo under Hypoxia: >44.66
  Ratio single/combo under Normoxia: 2.77
HT29 cell line; monotherapy, Table 16
  Normoxia/Hypoxia Ratio: 74.35
HT29 cell line; monotherapy, Table 18
  Normoxia/Hypoxia Ratio: 51.62
HT29 cell line; with 1 μM adavosertib
  Normoxia/Hypoxia Ratio: 76.80
HT29 cell line; with 10 μM adavosertib
  Normoxia/Hypoxia Ratio: 98.18
HT29 cell line; with 200 μM ceralasertib
  Normoxia/Hypoxia Ratio: 294.78
HT29 cell line; with 2000 μM ceralasertib
  Normoxia/Hypoxia Ratio: >821.56
HT29 cell line; monotherapy, hypoxia, adavosertib series (Table 16)
  IC50: 23.4 µM
HT29 cell line; monotherapy, hypoxia, ceralasertib series (Table 18)
  IC50: 14.3 µM
HT29 cell line; monotherapy, normoxia, adavosertib series (Table 16)
  IC50: ~1740 µM
HT29 cell line; monotherapy, normoxia, ceralasertib series (Table 18)
  IC50: 738 µM
HT29 cell line; with 1 μM adavosertib, hypoxia
  IC50: 9.38 µM
HT29 cell line; with 1 μM adavosertib, normoxia
  IC50: 720 µM
HT29 cell line; with 10 μM adavosertib, hypoxia
  IC50: 2.69 µM
HT29 cell line; with 10 μM adavosertib, normoxia
  IC50: 264 µM
HT29 cell line; with 200 μM ceralasertib, hypoxia
  IC50: 2.01 µM
HT29 cell line; with 200 μM ceralasertib, normoxia
  IC50: 592 µM
HT29 cell line; with 2000 μM ceralasertib, hypoxia
  IC50: < 0.32 µM
HT29 cell line; with 2000 μM ceralasertib, normoxia
  IC50: 266 µM
